Measurements: publication PMC4979481, “Functional characterization of the ectopically expressed olfactory receptor 2AT4 in human myelogenous leukemia” (Cell Death Discovery, 2016)

Biological target: T1, OR2AT4 (olfactory receptor 2AT4) (Homo sapiens, UniProt A6NND4)
T1 sequence (A6NND4 1-320): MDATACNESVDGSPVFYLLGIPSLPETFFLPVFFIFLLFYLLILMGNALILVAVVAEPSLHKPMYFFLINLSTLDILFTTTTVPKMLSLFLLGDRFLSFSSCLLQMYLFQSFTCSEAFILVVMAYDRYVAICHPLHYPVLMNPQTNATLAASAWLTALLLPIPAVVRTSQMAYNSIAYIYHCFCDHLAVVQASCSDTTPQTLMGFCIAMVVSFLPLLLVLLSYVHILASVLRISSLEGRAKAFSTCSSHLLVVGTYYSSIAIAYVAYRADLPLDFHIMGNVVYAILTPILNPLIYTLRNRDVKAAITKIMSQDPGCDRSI
Test: calcium imaging dose-response in K562 cells (endogenous receptor), blocked by antagonist Phenirat
Format: cell-based

EC50: 265 µM
SMILES: CC1=CCC(CCC(C)C(C)O)C1(C)C (stereo not shown) [Sandalore]
